One block for each molecule: values may come before it.
Tests used:
Ktr4p [1] = molecular target: T1, Ktr4p (Saccharomyces cerevisiae, UniProt P38131); test: coupled phosphatase (ENTPD3/CD39L3) malachite green assay; format: biochemical; details: 10 μM enzyme, 10 mM MnCl2, 10 mM CaCl2, pH 7.5, 20°C
T1 construct: gene KTR4; lumenal domain (stalk plus catalytic), residues Asn-33 to Tyr-464; N-terminal His6 tag cut off with TEV protease; E. coli Rosetta-gami 2 (DE3); monomer fraction from SEC
T1 sequence (P38131 33-464): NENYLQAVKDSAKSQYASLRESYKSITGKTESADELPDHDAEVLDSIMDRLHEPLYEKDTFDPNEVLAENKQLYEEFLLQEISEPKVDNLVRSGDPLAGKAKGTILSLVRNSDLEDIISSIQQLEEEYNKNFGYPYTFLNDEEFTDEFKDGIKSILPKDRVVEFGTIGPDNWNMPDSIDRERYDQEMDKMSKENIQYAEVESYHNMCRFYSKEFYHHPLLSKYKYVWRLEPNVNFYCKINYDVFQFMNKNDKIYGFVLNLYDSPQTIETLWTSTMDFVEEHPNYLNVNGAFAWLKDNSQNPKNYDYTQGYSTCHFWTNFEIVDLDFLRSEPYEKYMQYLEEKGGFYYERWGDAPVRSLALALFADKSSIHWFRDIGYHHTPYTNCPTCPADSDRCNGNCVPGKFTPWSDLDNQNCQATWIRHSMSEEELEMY

Ktr4p [2] = molecular target: T1, Ktr4p; test: X-ray crystal structure, […] Å; format: binding; details: with Mn2+ in the active site; 5 mM GDP and 5 mM MnCl2; pH 6.5; 4°C
[3] = molecular target: the molecule itself; test: SEC; Superdex 200 16/60, 10 mM HEPES pH 7.4, 150 mM NaCl; final purification step; monomer and dimer peaks at a ratio of ~2:1, monomer peak the largest

coupled phosphatase (ENTPD3/CD39L3) malachite green assay (Ktr4p [1]; sugar donor, 50 μM, 500 μM acceptor): GDP-mannose is a suitable sugar donor
Molecule: Nc1nc2c(ncn2[C@@H]2O[C@H](COP(=O)(O)OP(=O)(O)O[C@H]3O[C@H](CO)[C@@H](O)[C@H](O)[C@@H]3O)[C@@H](O)[C@H]2O)c(=O)[nH]1 [GDP-mannose]

Molecule: Nc1nc2c(ncn2[C@@H]2O[C@H](COP(=O)(O)OP(=O)(O)O)[C@@H](O)[C@H]2O)c(=O)[nH]1 [GDP]
X-ray crystal structure, 1.9 Å (Ktr4p [2]): 5a08 for the apo structure and 5a07 for the GDP-complex structure

Molecule: CO[C@H]1O[C@H](CO)[C@@H](O)[C@H](O)[C@@H]1O [methyl-α-mannoside]
coupled phosphatase (ENTPD3/CD39L3) malachite green assay (Ktr4p [1]; sugar acceptor, 500 μM, 50 μM GDP-mannose): we observe the most efficient activity with methyl-α-mannoside

B1: Ktr4p lumenal domain (residues Asn-33 to Tyr-464; stalk domain and catalytic domain) (domain or fragment, S. cerevisiae, UniProt P38131 33-464, looked up)
chain: T1 sequence (P38131 33-464)
notes: Cloned in pNIC28-Bsa4 with a His6 tag and a TEV site N-terminal of the construct; the tag was removed with TEV protease; A few residues of the vector probably remain at the N-terminus after cleavage (surmised from the forward primer); Residues 33-69/70 are not visible in the structures; source: E. coli Rosetta-gami 2 (DE3), purified (Ni-NTA IMAC, TEV cleavage, second IMAC pass, Superdex 200 SEC); …
stoichiometry N [3]: 2

Source: publication PMC4546622, “Structure of the Glycosyltransferase Ktr4p from Saccharomyces cerevisiae” (PLoS ONE, 2015)
